Source: paper PMC2615442, “Comparative analysis of selected methods for the assessment of antimicrobial and membrane-permeabilizing activity: a case study for lactoferricin derived peptides” (BMC Microbiology, 2008)
Where a SMILES comes first, the peptide text is derived from it.

Experiments:
[1] = system: P. aeruginosa strain PAO1; details: for final MIC of antibiotic: in the presence of subinhibitory concentrations of peptide P22, strain PAO1
Procedure: For these experiments we used the wild type P. aeruginosa strain PAO1, whose mechanisms of antibiotic resistance have been extensively studied.
(§1) The ability of the peptides to induce bacterial sensitization to antibiotics was determined by a standard checkerboard titration method in 96-well polystyrene microtiter plates. For this purpose, serial dilutions of the two antimicrobial agents were mixed together in a microtiter plate so that each row contained a fixed amount of peptide and increasing amounts of the antibiotic. Inocula and growth conditions were identical to those described for MIC determination. To assess the synergy between antibiotics and peptides, the Fractional Inhibitory Concentration (FIC) index of each combination was calculated according to the following formula: [(A)/MICA] + [(P)/MICP] = FICA + FICP = FIC index, where MICA and MICP are the MICs of the antibiotic and peptide determined separately, and (A) and (P) are the MICs of the antibiotic and peptide when determined in combination. A given peptide-antibiotic combination was considered as synergistic if its FIC index was ≤ 0.5.

[2] = system: Pseudomonas aeruginosa 4158-02; experiment: microbe, parasite or virus in culture; details: for FIC index of peptide-novobiocin combination: checkerboard, peptides with MIC >250 μg/mL assigned 500 μg/mL, synergistic if ≤ 0.5; for synergistic activity with novobiocin, in words: subinhibitory peptide concentrations
Procedure: First, we studied the ability of the peptides to sensitize P. aeruginosa to novobiocin, a hydrophobic antibiotic that cannot reach its intracellular target (gyrase) due to its inability to cross an intact outer membrane. […] Specifically, for a combination to be considered synergistic MIC of each agent when combined have to be at least 4-times lower than that of the corresponding agent alone.
as §1

[3] = system: Pseudomonas aeruginosa; experiment: NPN uptake permeabilization assay; format: cell-based; details: peptide 50 μg/mL; NPN 10 μM; 5 mM HEPES pH 7.2 with 0.1% glucose; 37°C
Procedure: In addition to this indirect method, we used a direct assay which measures the ability of peptides to promote the entry of a hydrophobic fluorescent probe (1-N-phenylnaphthylamine; NPN) into the cell membrane. This method identifies potent permeabilizers as those causing rapid NPN uptake leading to a high level of fluorescence.
The peptides permeabilizing activity on the bacterial cell envelope was assessed by quantifying the uptake of 1-N-phenylnaphthylamine (NPN). These experiments were performed essentially as described by Loh and collaborators with some modifications. Briefly, bacterial cells were grown in LB broth to mid-logarithmic phase, washed in 5 mM HEPES buffer (N-2-hydroxyethylpiperazine-N'-2-ethanesulfonic acid, pH 7.2) and resuspended at an OD600 of 0.5 in HEPES supplemented with 0.1% glucose. Freshly prepared bacterial suspensions were allowed to stabilize at 37°C for 10 min in quartz cuvettes. NPN was added at a final concentration of 10 μM and fluorescence was measured with a fluorometer (LS-50, Perkin-Elmer, Wellesley, MA, USA) using the time drive recording mode, slit widths of 2.5 nm and excitation and emission wavelengths of 350 nm and 420 nm, respectively. Peptides were added to the cuvette at a final concentration of 50 μg/mL.

[4] = system: E. coli ATCC 25922; experiment: MIC/MBC in polypropylene vs. polystyrene microplates; format: cell-based, Escherichia coli; details: for MIC, polypropylene vs. polystyrene plates: broth microdilution
Procedure: It has been reported that cationic peptides have affinity for certain plastics (i.e. polystyrene; [20]), and as a consequence some authors disfavor the use of microplates made of such material. To investigate this potential interference, we studied whether the composition of the microplate (polypropylene vs. polystyrene) affected the antibacterial activity of selected peptides differing in length, hydrophobicity and net charge when tested on E. coli ATCC 25922.
The peptides MICs were determined in Mueller-Hinton (MH) medium (Difco Laboratories, Sparks, MD, USA) by the broth microdilution assay following recommendations of the Clinical and Laboratory Standards Institute. Briefly, serial twofold dilutions of the peptides were made in MH broth and dispensed into 96-well U-bottom polystyrene microtiter plates (TPP, Trasadingen, Switzerland). Bacterial cells grown for 18–20 h on agar plates were suspended in saline and the turbidity was adjusted to an O.D600 of 0.04 (1 × 10^7 CFU/mL, approximately). A hundred-fold dilution of this suspension prepared in MH broth was mixed 1:1 with 100 μL of each of the corresponding peptide dilution. Plates were incubated at 37°C without shaking for 18–20 h and the MIC was determined visually. Minimum bactericidal concentration (MBC) was determined by plating aliquots from those wells with no growth onto MH agar plates. MBC was defined as the lowest concentration of the peptide causing a 99.9% loss of viability with respect to the CFU/mL inoculated.
The peptides MICs were also determined using polypropylene labware by the conventional broth microdilution assay as described above. For these experiments, polypropylene 96 well round bottom plates (Greiner; Sigma-Aldrich, USA) were used. Both this and all the previous antimicrobial susceptibility assays were performed at least in duplicate.

[5] = system: Escherichia coli; experiment: Bactericidal activity on resting bacteria in phosphate buffer with or without Ca2+/Mg2+; format: cell-based; details: 20 mM phosphate pH 7.0 (PB vs PB-CM), 18 hours, viable counts
Procedure: (§2) All peptides were first screened for bactericidal activity under low ionic strength conditions on resting bacteria. For this purpose, we exposed bacterial cells in phosphate buffer (PB) to increasing concentrations of peptides and performed viable cell counts. Experimental designs similar to this are found in reports dealing with the biological characterization of peptides (see for instance). These experiments were performed on Escherichia coli, Pseudomonas aeruginosa and Bordetella bronchiseptica, three Gram-negative pathogens differing in sensitivity to APs.
(§3) The buffer used in the previous experiments was devoid of Ca^2+ and Mg^2+, two divalent cations known to contribute to outer membrane stabilization. […] However, the magnitude of the decrease varied markedly depending upon the peptide and strain.
(§4) The activity of the peptides was determined on non-growing bacteria by incubating bacterial suspensions containing number of CFU/mL identical to those used for the MIC assay (5 × 10^4 per microplate well) in low-ionic strength medium (20 mM phosphate, pH 7.0) with or without 1 mM Ca ^2+ and 1 mM Mg ^2+. After 18 hours, aliquots were plated onto MH agar to determine the presence of viable bacteria, as described above for the standard MBC assay.

[6] = system: Bordetella bronchiseptica; experiment: as above; format: cell-based; details: 20 mM phosphate pH 7.0 (PB vs PB-CM), 18 hours, viable counts
Procedure: as §2, §3, §4

[7] = system: Pseudomonas aeruginosa; experiment: as above; format: cell-based; details: 20 mM phosphate pH 7.0 (PB vs PB-CM), 18 hours, viable counts
Procedure: as §2, §3, §4

## CC[C@H](C)[C@H](NC(=O)[C@H](CC(N)=O)NC(=O)[C@H](CCCNC(=N)N)NC(=O)[C@H](CCC(N)=O)NC(=O)[C@H](Cc1c[nH]c2ccccc12)NC(=O)[C@H](Cc1ccccc1)NC(=O)[C@@H](N)CCCNC(=N)N)C(=O)N[C@@H](CCCNC(=N)N)C(=O)N[C@@H](CCCCN)C(=O)N[C@@H](Cc1ccc(O)cc1)C(=O)N[C@@H](CCCNC(=N)N)C(=O)N[C@@H](CCCNC(=N)N)C(N)=O [P 22] (H-RFWQRNIRKYRR-NH2)
[1]; PAO1
  FIC of P22-antibiotic combinations: < 0.5
  peptide MIC: 31.25 µg/mL

## CC1(C)S[C@@H]2[C@H](NC(=O)[C@H](N)c3ccc(O)cc3)C(=O)N2[C@H]1C(=O)O [amoxicillin]
[1]
  final MIC of antibiotic: 2 µg/mL

## CC1(C)S[C@@H]2[C@H](NC(=O)[C@H](N)c3ccccc3)C(=O)N2[C@H]1C(=O)O [ampicillin]
[1]
  final MIC of antibiotic: 5 µg/mL

## CC[C@H]1OC(=O)[C@H](C)[C@@H](O[C@H]2C[C@@](C)(OC)[C@@H](O)[C@H](C)O2)[C@H](C)[C@@H](O[C@@H]2O[C@H](C)C[C@H](N(C)C)[C@H]2O)[C@](C)(O)C[C@@H](C)C(=O)[C@H](C)[C@@H](O)[C@]1(C)O [erythromycin]
[1]
  final MIC of antibiotic: 1 µg/mL

## CCn1cc(C(=O)O)c(=O)c2ccc(C)nc21 [nalidixic acid]
[1]
  final MIC of antibiotic: 2 µg/mL

## CO[C@@H]1[C@@H](OC(N)=O)[C@@H](O)[C@H](Oc2ccc3c(O)c(NC(=O)c4ccc(O)c(CC=C(C)C)c4)c(=O)oc3c2C)OC1(C)C [novobiocin, reference compound]
[1]
  final MIC of antibiotic: 5 µg/mL
[2]; Pseudomonas aeruginosa, 415802, read-out: novobiocin MIC in the absence of peptides
  MIC: ≥ 512 µg/mL

## CO[C@H]1/C=C/O[C@@]2(C)Oc3c(C)c(O)c4c(O)c(c(/C=N/N5CCN(C)CC5)c(O)c4c3C2=O)NC(=O)/C(C)=C\C=C\[C@H](C)[C@H](O)[C@@H](C)[C@@H](O)[C@@H](C)[C@H](OC(C)=O)[C@@H]1C [rifampicin]
[1]
  final MIC of antibiotic: 0.07 µg/mL

## CFWQRNIRKVRC-NH2 [P 28]
[3]
  NPN uptake (fluorescence rise): slowest and less prominent NPN-uptakes
[2]
  classification by the novobiocin-sensitization technique: poor permeabilizers

## FWARNIRKVR-NH2 [P 46, LF11 derived synthetic peptide, amidated C-terminus]
[4]
  MBC, polypropylene vs. polystyrene plates: improved its MBC when using polypropylene instead of polystyrene

## FWLRNIRKVR-NH2 [P 48]
[2]
  FIC index of peptide-novobiocin combination: low FIC indices

## FWQRNIRKVKKK-NH2 [P 10]
[2]
  FIC index of peptide-novobiocin combination: best compounds as judged by their FIC indices
  synergistic activity with novobiocin, in words: synergistic activity at low concentrations

## FWQRNIRKVKKKI-NH2 [P 14]
[2]
  FIC index of peptide-novobiocin combination: best compounds as judged by their FIC indices
[2]; peptide added at 6.25 μg/mL
  decrease in novobiocin MIC (MIC ratio without/with peptide): 4 fold
[2]; peptide at 6.25 μg/mL
  times the synergistic peptide concentration (6.25 μg/mL) is lower than the peptide's own MIC: at least 40 times

## FWQRNIRKVKKKK-NH2 [P 13, LF11 derived synthetic peptide, amidated C-terminus]
[4]
  MBC, polypropylene vs. polystyrene plates: not significantly affected by the type of material used
  MIC, polypropylene vs. polystyrene plates: MIC improved in polypropylene plates

## FWQRNIRKVRRRR-NH2 [P 11, LF11 derived synthetic peptide, amidated C-terminus]
[4]
  MBC, polypropylene vs. polystyrene plates: lower in polystyrene
  MIC, polypropylene vs. polystyrene plates: same MIC in both materials

## FWQRNISKVR-NH2 [P 54]
[3]
  NPN uptake (fluorescence rise): slowest and less prominent NPN-uptakes
[2]
  classification by the novobiocin-sensitization technique: poor permeabilizers

## FWQRNIYKVR-NH2 [P 41]
[3]
  NPN uptake (fluorescence rise): slowest and less prominent NPN-uptakes
[2]
  classification by the novobiocin-sensitization technique: poor permeabilizers

## FWQRRIRKVRR-NH2 [P 15]
[2]
  FIC index of peptide-novobiocin combination: low FIC indices
  synergistic activity with novobiocin, in words: synergistic activity at low concentrations

## FWRNIRKVR-NH2 [P 3]
[3]
  NPN uptake (fluorescence rise): slowest and less prominent NPN-uptakes
[2]
  classification by the novobiocin-sensitization technique: poor permeabilizers

## Polymyxin B [PMB]
[4]
  MIC, polypropylene vs. polystyrene plates: higher activity (lower MIC value) when assayed in polypropylene
[5]
  effect of 1 mM Ca2+ and 1 mM Mg2+ on bactericidal activity: not significantly affected by the divalent cations
[6]
  effect of 1 mM Ca2+ and 1 mM Mg2+ on bactericidal activity: not significantly affected by the divalent cations
[7]
  effect of 1 mM Ca2+ and 1 mM Mg2+ on bactericidal activity: not significantly affected by the divalent cations
